Reference: ChEMBL document CHEMBL5726175, “sGC stimulators” (2019)

Test: sGC-HEK-cGMP Assay: Human embryonic kidney cells (HEK293), endogenously expressing soluble guanylate cyclase (sGC), were used to evaluate the activity of test compounds. Compounds stimulating the sGC enzyme should cause an increase in the intracellular concentration of cGMP. HEK 293 cells were seeded in Dulbecco's Modification of Eagle's Medium supplemented with fetal bovine serum (10% final) and penicillin (100 U/mL)/streptomycin (100 μg/mL) in a 50 μL volume at a density of 1.5×10^4 cells/well in a poly-D-lysine coated 384 well flat bottom plate. Cells were incubated overnight at 37° C. in a humidified chamber with 5% CO2. Medium was aspirated and cells were washed with 1× Hank's Buffered Saline Salt Solution (50 μL). Cells were then incubated for 15 minutes at 37° C. with 50 μL of a 0.5 mM 3-isobutyl-1-methylxanthine (IBMX) solution. Test article and Diethylenetriamine NONOate (DETA-NONOate) solutions (x μM concentration for test article solution and 10 μM concentration for DETA-NONOate solution; wherein x is one of the following concentrations: 0.029 nM to 30000 nM). were then added to the assay mixture and the resulting mixture incubated at 37° C. for 20 minutes. After the 20 minute incubation, the assay mixture was aspirated and 10% acetic acid containing 150 ng/mL+3-cGMP (internal standard for LCMS) (50 μL) was added to the cells. The plate was incubated at 4° C. for 30 minutes in the acetic acid solution to stop the reaction and lyse the cells. The plates were then centrifuged at 1,000 g for 3 minutes at 4° C. and the supernatant transferred to a clean reaction plate for LCMS analysis.cGMP concentrations were determined from each sample using the LCMS conditions below (Table 5) and calculated standard curve. The standard curve was prepared in 10% acetic acid with 150 ng/mL+3cGMP (isotopically labelled cGMP with a weight 3 units higher than wild type) with the following final concentrations of cGMP in ng/mL: 1, 5, 10, 50, 100, 250, 500, 1000, 2000.
Assay type: cell-based

Compound | EC50
COc1ccc2c(c1)CCN(c1nc(-c3cc(-c4ccon4)n(Cc4ccccc4F)n3)ncc1F)C2OC=O (centres undefined) | < 0.1 µM
O=COC1c2ccc(O)cc2CCN1c1nc(-c2cc(-c3ccon3)n(Cc3ccccc3F)n2)ncc1F (centres undefined) | > 1 µM
Fc1ccccc1Cn1nc(-c2ncc(F)c(N3CCCC4CC43)n2)cc1-c1ccon1 (centres undefined) | in the range around 0.55 µM
CC(=O)c1cc(-c2ncc(F)c(N3CCC[C@H](C)[C@@H]3OC=O)n2)nn1Cc1ccccc1F | in the range around 0.55 µM
O=COC1c2[nH]cnc2CCN1c1nc(-c2cc(-c3ccon3)n(Cc3ccccc3F)n2)ncc1F (centres undefined) | > 1 µM
O=CO[C@H](Cc1ccc(O)cc1)Nc1nc(-c2cc(-c3ccon3)n(Cc3ccccc3F)n2)ncc1F | > 1 µM
C[C@H]1CCCN(c2nc(-c3cc(-c4ccon4)n(Cc4cccc(F)c4F)n3)ncc2F)[C@H]1OC=O | < 0.1 µM
COC(=O)N1CCN(c2nc(-c3cc(-c4ccon4)n(Cc4ccccc4F)n3)ncc2F)C(OC=O)C1 (centres undefined) | > 1 µM
O=COC1CNCCN1c1nc(-c2cc(-c3ccon3)n(Cc3ccccc3F)n2)ncc1F (centres undefined) | > 1 µM
